From US20240336640A1, “CALCIUM OXALATE CRYSTALLIZATION INHIBITORS FOR RENAL DISORDERS” (VIFOR (INTERNATIONAL) AG, priority 2018, published 2024)
Counter-ions that a name gives are not always drawn.

Assay: CaOx crystallization inhibition assay in human urine, pH 6.2
Conditions: human urine pH 6.2, 1 mM sodium oxalate, 7 h, light microscopy
Protocol: For comparison of the compounds' efficacy to inhibit calcium oxalate (CaOx) crystallization a simple in vitro assay in urine was used. In brief, human urine (pH 6.2) was mixed with compound, followed by the addition of 1 mM sodium oxalate inducing CaOx crystallization. After 7 hours of incubation at room temperature crystallization was measured by light microscopy, employing an automated image analysis to detect, classify and quantify the CaOx crystal types formed, namely CaOx monohydrate (COM) and CaOx dihydrate (COD).
Human urine was stored at −20° C. in 50 mL aliquots. After thawing, aliquots were centrifuged, filtered using a 0.45-μm syringe filter and pH set to 6.2. Oxalate concentrations of human urine samples were determined using the Oxalate Assay kit following the kit protocol, and found to be <100 μM for the samples used. Dilutions of sodium and compounds were prepared in Bis Tris buffer (50 mM, 150 mM NaCl, pH 6.2). Urine was mixed with compound in Eppendorf tubes, and subsequently sodium oxalate was added. The final assay mixture of 1 mL total volume contained 90% urine, 5% sodium oxalate (1 mM) and 5% compound dilution. Immediately upon sodium oxalate addition, the final assay mixture was vortexed and added to the imaging slide (8 well glass bottom chamber, ibidi). 400 μL per well were added and two wells for each sample were prepared. Crystallization was assessed after 7 h incubation at room temperature, using a Leica CTR6000 microscope (Leica Microsystems, Wetzlar, Germany) in brightfield mode. For visualization, images with a 40× objective were used. For quantification 2 wells/sample with five 20× objective images each were used. Without addition of sodium oxalate no crystallization was observed.
Quantification and classification of crystals was performed in Matlab (version R2016b or R2018b). In brief, crystals were segmented using edge detection and watershed algorithms and subsequently shape, intensity and texture features for each crystal were extracted. The extracted features served as input for a semi-supervised classification approach to distinguish COM (class 0), COD (class 1), not determined structures (class 2) and background noise (class 3). A cubic support vector machine (SVM) classifier was trained and subsequently used for classification of testing images.
All testing images were processed using the Batch Processing App. Efficacy of compounds to inhibit CaOx crystallization was compared by analysing the total area per field of view for each crystal type. The sum of the total area of the three crystal classes—COM, COD and unclassified, was normalized to the control within each experiment (N=3). Due to the inherent variability of the crystallization process itself, normalization within each experiment decreased the effect of inter-experimental variability.

COCCOCCOCCOCCOCCOCCOCCOCCOCCOCCOCCO[C@@H]1[C@@H](OP(=O)(O)O)[C@H](OP(=O)(O)O)[C@@H](OP(=O)(O)O)[C@@H](OP(=O)(O)O)[C@H]1OP(=O)(O)O [OEG11-IP5]
50% complete inhibition (<50% total area): 11 µM | COM inhibition (<5% of total area): 100 µM | Complete inhibition (i.e <5% total area): >100 µM

O=P(O)(O)O[C@H]1[C@H](OP(=O)(O)O)[C@@H](OP(=O)(O)O)[C@H](OP(=O)(O)O)[C@@H](OP(=O)(O)O)[C@H]1OP(=O)(O)O [IP6, inositol hexaphosphate]
50% complete inhibition (<50% total area): 30 µM | COM inhibition (<5% of total area): 3 µM | Complete inhibition (i.e <5% total area): >30 µM

COCCOCCO[C@@H]1C(OP(=O)(O)O)[C@H](OCCOCCOC)[C@@H](OP(=O)(O)O)C(OP(=O)(O)O)[C@H]1OP(=O)(O)O (stereo partly drawn) [(OEG2)2-IP4]
50% complete inhibition (<50% total area): >100 µM | COM inhibition (<5% of total area): >100 µM | Complete inhibition (i.e <5% total area): >100 µM

O=C(O)CC(O)(CC(=O)O)C(=O)O [Citrate, Trisodium citrate dihydrate]
50% complete inhibition (<50% total area): >100 µM | COM inhibition (<5% of total area): >100 µM | Complete inhibition (i.e <5% total area): >100 µM
